“And” between values parts separate entries of the source, which are not always exact repeats. Equal values may be shown once. Toxic doses and inconclusive results are not listed.

The test concerns P388 leukemia ip, CD2F1 mice, survival T/C. In words: NCI In Vivo Anticancer Drug Screen. Data for tumor model P388 Leukemia (intraperitoneal) in CD2F1 (CDF1) mice. The following applies: endpoint: median survival time, higher = longer survival. A digest of the protocol: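 Mice carrying the transplanted tumor received test compound or vehicle. Survival was recorded in each group, and the value is the treated-group measurement divided by that of the vehicle-treated control group.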

[1] abbreviates: dose: 25.0 mg/kg/injection, schedule: Q01DX009 (ip), vehicle: saline with Tween-80.
Setting [2] is: dose: 25.0 mg/kg/injection, schedule: Q01DX009 (ip), vehicle: other.
Setting [3] is: dose: 50.0 mg/kg/injection, schedule: Q01DX009 (ip), vehicle: other.
Where [4] appears, read: dose: 200.0 mg/kg/injection, schedule: Q01DX009 (ip), vehicle: other.
Where [5] appears, read: dose: 50.0 mg/kg/injection, schedule: Q01DX009 (ip), vehicle: Klucel (hydroxypropylcellulose) (HPC).
Setting [6] is: dose: 100.0 mg/kg/injection, schedule: Q01DX009 (ip), vehicle: Klucel (hydroxypropylcellulose) (HPC).
Setting [7] is: dose: 200.0 mg/kg/injection, schedule: Q01DX009 (ip), vehicle: Klucel (hydroxypropylcellulose) (HPC).
Where [8] appears, read: dose: 50.0 mg/kg/injection, schedule: Q01DX009 (ip), vehicle: saline with Tween-80.
Setting [9] is: dose: 100.0 mg/kg/injection, schedule: Q01DX009 (ip), vehicle: saline with Tween-80.
[10] abbreviates: dose: 50.0 mg/kg/injection, schedule: Q01DX005 (ip), vehicle: Klucel (hydroxypropylcellulose) (HPC).
The mark [11] stands for this setting: dose: 100.0 mg/kg/injection, schedule: Q01DX005 (ip), vehicle: Klucel (hydroxypropylcellulose) (HPC).
[12] abbreviates: dose: 200.0 mg/kg/injection, schedule: Q01DX005 (ip), vehicle: Klucel (hydroxypropylcellulose) (HPC).
Setting [13] is: dose: 12.5 mg/kg/injection, schedule: Q04DX002 (ip), vehicle: saline with Tween-80.

Turning to `Oc1cc(CN2CCOCC2)c(O)cc1CN1CCOCC1`, the T/C is, setting by setting: (dose: 1.56 mg/kg/injection, schedule: Q01DX009 (ip), vehicle: saline with Tween-80) 100 % of control; (dose: 3.13 mg/kg/injection, schedule: Q01DX009 (ip), vehicle: saline with Tween-80) 119 % of control and 121 % of control; (dose: 6.25 mg/kg/injection, schedule: Q01DX009 (ip), vehicle: saline with Tween-80) 113 % of control; (dose: 12.5 mg/kg/injection, schedule: Q01DX009 (ip), vehicle: saline with Tween-80) 113 % of control; under setting [1], 117 % of control.
On to `COc1ccc(CCNc2ccc(NCCc3ccc(OC)c(OC)c3)c3c2C(=O)c2ccccc2C3=O)cc1OC`, for which the T/C is 88 % of control under setting [2]; 88 % of control under setting [3]; 101 % of control under setting [4]; 91 % of control (dose: 400.0 mg/kg/injection, schedule: Q01DX009 (ip), vehicle: other).
Take `Cc1cccc(Nc2n[nH]c(N)n2)c1`: the T/C by setting is: under setting [5], 91 % of control; under setting [6], 94 % of control.
As to `CCCCOC1NC(=O)NC(=O)C1(F)C(=O)OCC` (stereo not given), the T/C reads like this: (dose: 60.0 mg/kg/injection, schedule: Q01DX005 (ip), vehicle: saline with Tween-80) 108 % of control; (dose: 120.0 mg/kg/injection, schedule: Q01DX005 (ip), vehicle: saline with Tween-80) 117 % of control; (dose: 240.0 mg/kg/injection, schedule: Q01DX005 (ip), vehicle: saline with Tween-80) 121 % of control.
As for `c1cc2nc(-c3ccc4cc(C5=NCCN5)[nH]c4c3)[nH]c2cc1C1=NCCN1`, the T/C (dose: 12.5 mg/kg/injection, schedule: Q01DX005 (ip), vehicle: saline) was 106 % of control; the T/C (dose: 25.0 mg/kg/injection, schedule: Q01DX005 (ip), vehicle: saline) is 106 % of control; the T/C (dose: 50.0 mg/kg/injection, schedule: Q01DX005 (ip), vehicle: saline) was 99 % of control.
For the molecule `CC(C)(C)C1=CC2(c3ccccn3)C(Cl)C(=O)N2NC(c2ccccn2)=N1` (stereo not given), the T/C is 98 % of control under setting [2]; 101 % of control under setting [3]; 98 % of control (dose: 100.0 mg/kg/injection, schedule: Q01DX009 (ip), vehicle: other); 93 % of control under setting [4].
Take `CC[n+]1cccc(O)c1`: the T/C runs as follows: (dose: 50.0 mg/kg/injection, schedule: Q01DX009 (ip), vehicle: saline) 105 % of control and 94 % of control; (dose: 100.0 mg/kg/injection, schedule: Q01DX009 (ip), vehicle: saline) 95 % of control and 96 % of control; (dose: 200.0 mg/kg/injection, schedule: Q01DX009 (ip), vehicle: saline) 107 % of control and 95 % of control; (dose: 400.0 mg/kg/injection, schedule: Q01DX009 (ip), vehicle: saline) 100 % of control and 105 % of control.
Regarding `Cc1ccnc(NS(=O)(=O)c2ccc(N=Nc3c(O)n(-c4ccccc4)n(-c4ccccc4)c3=O)cc2)n1`, the T/C was 86 % of control under setting [5], 86 % of control under setting [6] and 91 % of control under setting [7].
`O=C(c1cccnc1)N(Cc1ccccc1)C(=O)c1cccnc1`: the T/C by setting is: (dose: 25.0 mg/kg/injection, schedule: Q01DX001 (ip), vehicle: saline with Tween-80) 99 % of control; (dose: 50.0 mg/kg/injection, schedule: Q01DX001 (ip), vehicle: saline with Tween-80) 106 % of control; (dose: 100.0 mg/kg/injection, schedule: Q01DX001 (ip), vehicle: saline with Tween-80) 100 % of control; (dose: 200.0 mg/kg/injection, schedule: Q01DX001 (ip), vehicle: saline with Tween-80) 106 % of control.
Regarding `O=c1[nH]c2ccccc2[nH]1`, the T/C was 114 % of control and 98 % of control under setting [5]; 99 % of control and 90 % of control (dose: 50.0 mg/kg/injection, schedule: Q01DX009 (ip), vehicle: suspension in saline); 107 % of control and 98 % of control under setting [6]; 100 % of control (dose: 100.0 mg/kg/injection, schedule: Q01DX009 (ip), vehicle: suspension in saline); 117 % of control under setting [7]; 101 % of control and 96 % of control (dose: 200.0 mg/kg/injection, schedule: Q01DX009 (ip), vehicle: suspension in saline). For the same molecule, the T/C (dose: 400.0 mg/kg/injection, schedule: Q01DX009 (ip), vehicle: suspension in saline) was 101 % of control and 88 % of control.
As for `COC(=O)CCC(C)C1CCC2C3=CC(=O)C4CC(OC(C)=O)CCC4(C)C3CC(OC(C)=O)C21C` (stereo not given), the T/C is, setting by setting: under setting [8], 109 % of control; under setting [9], 94 % of control; (dose: 200.0 mg/kg/injection, schedule: Q01DX009 (ip), vehicle: saline with Tween-80) 87 % of control.
In the case of `O=[N+]([O-])c1ccccc1/C=C\c1ccccn1`, the T/C under setting [10] was 104 % of control, the T/C under setting [11] is 101 % of control and the T/C under setting [12] was 101 % of control.
Consider `N#Cc1c(F)cccc1N(Cc1cccnc1)C(=S)Nc1ccc(Cl)c(Cl)c1`, for which the T/C runs as follows: under setting [10], 110 % of control; under setting [11], 110 % of control; under setting [12], 105 % of control.
Turning to `CCCCCCCCCCN=Cc1c(O)c(O)c(CCC)c2cc(C)c(-c3c(C)cc4c(CCC)c(O)c(O)c(C=NCCCCCCCCCC)c4c3O)c(O)c12`, the T/C (dose: 25.0 mg/kg/injection, schedule: Q01DX005 (ip), vehicle: Klucel (hydroxypropylcellulose) (HPC)) was 100 % of control; the T/C under setting [10] was 95 % of control; the T/C under setting [11] was 98 % of control; the T/C under setting [12] is 95 % of control.
As for `O=C1CCCC2C3CC(CN12)C1CCCCN1C3` (stereo not given), the T/C is 100 % of control under setting [1], 120 % of control under setting [8] and 105 % of control under setting [9].
Take `O=C(OC1CCC2(CC1)SCCS2)c1ccccc1`: the T/C is 100 % of control (dose: 100.0 mg/kg/injection, schedule: Q04DX003 (ip), vehicle: saline with Tween-80); 100 % of control (dose: 200.0 mg/kg/injection, schedule: Q04DX003 (ip), vehicle: saline with Tween-80); 104 % of control (dose: 400.0 mg/kg/injection, schedule: Q04DX003 (ip), vehicle: saline with Tween-80).
For `C(=N/NC1=NCCN1)/c1ccnc2ccccc12`, the T/C is 100 % of control (dose: 15.0 mg/kg/injection, schedule: Q01DX005 (ip), vehicle: saline); 98 % of control (dose: 30.0 mg/kg/injection, schedule: Q01DX005 (ip), vehicle: saline); 101 % of control and 92 % of control (dose: 60.0 mg/kg/injection, schedule: Q01DX005 (ip), vehicle: saline).
With `Nc1ccccc1NC(=O)c1nc2ccccc2[nH]1`, the T/C is 106 % of control (dose: 100.0 mg/kg/injection, schedule: Q04DX003 (ip), vehicle: Klucel (hydroxypropylcellulose) (HPC)); 97 % of control (dose: 200.0 mg/kg/injection, schedule: Q04DX003 (ip), vehicle: Klucel (hydroxypropylcellulose) (HPC)); 97 % of control (dose: 400.0 mg/kg/injection, schedule: Q04DX003 (ip), vehicle: Klucel (hydroxypropylcellulose) (HPC)).
As to `O=C1C(=O)c2c(ccc3ccccc23)-c2ccccc21`, the T/C runs as follows: under setting [10], 100 % of control; under setting [5], 104 % of control; under setting [11], 97 % of control; under setting [6], 100 % of control; under setting [12], 104 % of control; under setting [7], 86 % of control. Besides, the T/C (dose: 400.0 mg/kg/injection, schedule: Q01DX009 (ip), vehicle: Klucel (hydroxypropylcellulose) (HPC)) was 94 % of control.
On to `Clc1ccc2c(cnc3ccccc32)n1`, for which the T/C under setting [13] is 102 % of control; the T/C (dose: 25.0 mg/kg/injection, schedule: Q04DX002 (ip), vehicle: saline with Tween-80) is 102 % of control; the T/C (dose: 50.0 mg/kg/injection, schedule: Q04DX002 (ip), vehicle: saline with Tween-80) was 101 % of control.
On to `CN=C(N)N/N=C(\C)c1ccc2c(c1)Cc1cc(/C(C)=N/NC(N)=NC)ccc1-2`, for which the T/C is 124 % of control (dose: 0.78 mg/kg/injection, schedule: Q04DX002 (ip), vehicle: saline with Tween-80); 154 % of control (dose: 6.25 mg/kg/injection, schedule: Q04DX002 (ip), vehicle: saline with Tween-80); 123 % of control under setting [13].
For the molecule `Cc1ncc(C)c2c([N+](=O)[O-])cccc12`, the T/C reads like this: under setting [5], 106 % of control; under setting [6], 110 % of control; under setting [7], 96 % of control.
